Experimental data as given in patent US20120190666A1, “Heteroaryl Compounds as PIKK Inhibitors” (Amgen Inc., priority 2009, published 2012).

Each compound was assayed against T1, PI3Kα (Homo sapiens, UniProt P42336) (assay: In vitro PI3K AlphaScreen assay, PI3Kα). Settings: PI(4,5)P2 substrate, 20 minutes at room temperature, read-out: P13Kalpha IC50 um.
T1 construct: Full length p110 subunits of PI3K α, β and δ, N-terminally labeled with polyHis tag; polyHis (N); made in house; host or cells: Sf9 insect cells (baculovirus)
T1 sequence (P42336 whole entry): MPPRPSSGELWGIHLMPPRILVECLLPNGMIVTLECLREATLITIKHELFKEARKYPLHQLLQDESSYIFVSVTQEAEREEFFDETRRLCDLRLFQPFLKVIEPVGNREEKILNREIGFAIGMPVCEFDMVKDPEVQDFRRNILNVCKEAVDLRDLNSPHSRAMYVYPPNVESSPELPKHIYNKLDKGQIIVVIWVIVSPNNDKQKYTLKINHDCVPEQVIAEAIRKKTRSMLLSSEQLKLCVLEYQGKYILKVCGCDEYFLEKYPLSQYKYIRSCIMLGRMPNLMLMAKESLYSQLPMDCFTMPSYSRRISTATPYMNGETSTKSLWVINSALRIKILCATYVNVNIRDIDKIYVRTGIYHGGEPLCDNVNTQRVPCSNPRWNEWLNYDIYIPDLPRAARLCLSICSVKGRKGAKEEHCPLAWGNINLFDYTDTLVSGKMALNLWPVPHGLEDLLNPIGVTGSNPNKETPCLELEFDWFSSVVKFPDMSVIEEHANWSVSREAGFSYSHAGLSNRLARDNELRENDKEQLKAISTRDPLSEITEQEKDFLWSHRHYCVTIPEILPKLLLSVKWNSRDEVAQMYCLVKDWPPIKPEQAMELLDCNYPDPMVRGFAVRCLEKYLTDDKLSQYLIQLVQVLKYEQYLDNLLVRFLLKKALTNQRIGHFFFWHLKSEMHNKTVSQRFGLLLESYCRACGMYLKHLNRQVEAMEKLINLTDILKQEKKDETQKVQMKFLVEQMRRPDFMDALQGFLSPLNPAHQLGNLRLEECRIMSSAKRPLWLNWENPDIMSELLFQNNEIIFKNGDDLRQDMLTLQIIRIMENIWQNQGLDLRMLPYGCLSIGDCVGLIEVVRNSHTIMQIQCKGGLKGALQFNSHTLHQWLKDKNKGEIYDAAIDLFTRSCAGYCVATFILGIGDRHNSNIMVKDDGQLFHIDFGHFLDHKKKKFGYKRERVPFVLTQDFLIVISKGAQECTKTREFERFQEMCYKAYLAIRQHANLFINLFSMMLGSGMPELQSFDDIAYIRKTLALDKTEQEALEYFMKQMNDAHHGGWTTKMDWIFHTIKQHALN
T1 sequence (P27986 whole entry partner): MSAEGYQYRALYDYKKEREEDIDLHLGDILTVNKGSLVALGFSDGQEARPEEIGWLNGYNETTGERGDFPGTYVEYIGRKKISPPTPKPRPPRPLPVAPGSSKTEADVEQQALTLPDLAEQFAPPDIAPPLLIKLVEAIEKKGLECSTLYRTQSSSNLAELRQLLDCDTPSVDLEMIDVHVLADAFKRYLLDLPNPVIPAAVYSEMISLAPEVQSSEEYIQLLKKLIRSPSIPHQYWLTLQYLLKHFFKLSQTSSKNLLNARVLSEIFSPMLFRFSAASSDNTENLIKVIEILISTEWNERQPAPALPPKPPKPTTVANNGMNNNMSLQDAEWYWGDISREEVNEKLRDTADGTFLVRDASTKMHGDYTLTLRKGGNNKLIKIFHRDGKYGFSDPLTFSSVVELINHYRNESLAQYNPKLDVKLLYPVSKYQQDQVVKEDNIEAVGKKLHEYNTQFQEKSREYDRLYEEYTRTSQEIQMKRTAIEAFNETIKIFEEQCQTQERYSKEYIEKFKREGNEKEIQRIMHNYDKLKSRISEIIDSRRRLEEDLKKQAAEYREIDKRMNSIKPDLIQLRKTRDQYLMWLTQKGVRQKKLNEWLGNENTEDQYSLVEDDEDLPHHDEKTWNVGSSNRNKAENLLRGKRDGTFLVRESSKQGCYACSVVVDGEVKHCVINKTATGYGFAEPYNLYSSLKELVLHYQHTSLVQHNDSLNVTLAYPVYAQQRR
Type: biochemical
Protocol: The PI3K AlphaScreen® assay (PerkinElmer, Waltham, Mass.) measures the activity of a panel of four phosphoinositide 3-kinases: PI3Kα, PI3KIβ, PI3Kγ, and PI3Kδ. Each of these enzymes phosphorylates the 3′-hydroxyl group on phosphatidylinositiol (4,5)-bisphosphate (PIP2) to produce phosphatidylinositol (3,4,5)-trisphosphate (PIP3). This phosphorylation activity is measured using a GST-tagged PIP3 binding protein (Echelon Biosciences, Salt Lake City, Utah), an anti-GST-tagged Acceptor bead, and streptavidin-Donor bead. The interaction of biotinylated-PIP3 analog (IP4) and the PIP3 binding protein brings both Acceptor and Donor beads together producing, upon excitation of the Donor beads at 680 nm, a singlet oxygen species leading to the luminescent AlphaScreen® signal. When PIP3 is produced via phosphorylation of PIP2 by a PI3K, PIP3 competes with biotinylated-PIP3 analog (IP4) for binding to the PIP3 binding protein. In the absence of this interaction, proximity of the Donor and Acceptor beads is decreased, producing a loss of luminescent signal which is […] to PI3K activity. […] The enzyme reaction buffer is made using sterile water (Baxter, Deerfield, Ill.) and 50 mM Tris HCl pH 7, 14 mM MgCl2, 2 mM sodium cholate, and 100 mM NaCl. 2 mM DTT is added fresh the day of the experiment. The AlphaScreen® reaction buffer is made using sterile water and 10 mM Tris HCl pH 7.5, 150 mM NaCl, 0.10% Tween 20, and 30 mM EDTA. 1 mM DTT is added fresh the day of the experiment. The source plates for this assay are 384-well Greiner clear polypropylene plates containing test compounds at 5 mM and diluted 1:2 over 22 points. Columns 23 and 24 contain only DMSO as these are designated for positive and negative controls. Source plates are replicated into 384-well Optiplates (PerkinElmer, Waltham, Mass.), 0.5 μL/well, to make assay-ready plates. The different PI3K isoforms are each diluted in enzyme reaction buffer to 2× working solutions. PI3Kα is diluted to 1.6 nM, PI3Kβ is diluted to 0.8 nM, PI3Kγ is diluted to 15 nM, and PI3Kδ is diluted to 1.6 nM. Two different 2× substrate solutions are made in enzyme reaction buffer. In one solution, PI(4,5)P2 (Echelon Biosciences, Salt Lake City, Utah) is diluted to 10 μM and ATP is diluted to 20 μM. This solution is used in the assays testing PI3Kα and PI3Kβ. In a second solution, PI(4,5)P2 is diluted to 10 μM and ATP is diluted to 80 μM. This solution is used in the assays testing PI3Kγ and PI3Kδ. The AlphaScreen® reaction solutions are made using beads from the anti-GST AlphaScreen® kit (PerkinElmer, Waltham, Mass.). Two solutions are made in Alphascreen reaction buffer to 4× working concentrations. In one solution, biotinylated-IP4 (Echelon Biosciences, Salt Lake City, Utah) is diluted to 40 nM and streptavadin-Donor Beads are diluted to 80 μg/mL. In the second solution, PIP3-binding protein (Echelon Biosciences, Salt Lake City, Utah) is diluted to 40 nM and anti-GST-Acceptor Beads are diluted to 80 μg/mL. 10 μL/well of enzyme reaction buffer is added to Column 24 of the assay ready plates in place of enzyme. This is done for plates in the PI3Kα, β, and δ assays. Using a 384-well dispensing Multidrop (Titertek, Huntsville, Ala.), 10 μL/well of 2× enzyme (PI3Kα, β, δ) is added to Columns 1-23 of the appropriate assay ready plates (for PI3Kγ 10 μL is added to Columns 1-24). 10 μL/well of the appropriate substrate solution (the solution with 20 μM ATP for PI3Kα and β assays, and the solution with […] for PI3Kγ and δ assays) is then added to Columns 1-24 of the plates. Plates are then incubated at room temperature for 20 minutes. In the dark, 10 μL/well of the Donor Bead solution is added to Columns 1-24 of the plates to quench the enzyme reaction. The plates are incubated at room temperature for 30 minutes. Still in the dark, 10 μL/well of the Acceptor Bead solution is also added to Columns 1-24 of the plates. The plates are then incubated in the dark for 1.5 hours.
Compound `Cc1nc(N)nc(-c2c(Nc3cc[nH]n3)nc3ccccn23)n1` [Cpd 1, 3-(4-amino-6-methyl-1,3,5-triazin-2-yl)-N-(1H-pyrazol-3-yl)imidazo[1,2-a]pyridin-2-amine] has an IC50 of 0.82 µM.
With `Cc1nc(-c2c(Nc3cccc(O)c3)nc3ccccn23)c2nc[nH]c2n1` [Cpd 2] the IC50 was 0.02 µM.
For `CNc1nc(C)nc(-c2c(Nc3cc[nH]n3)nc3ccccn23)n1` [Cpd 3, 3-(4-methyl-6-(methylamino)-1,3,5-triazin-2-yl)-N-(1H-pyrazol-3-yl)imidazo[1,2-a]pyridin-2-amine], the IC50 was 0.82 µM.
In the case of `Cc1nc(N)cc(-c2c(Nc3cc[nH]n3)nc3cccnn23)n1` [Cpd 7, 3-(6-amino-2-methylpyrimidin-4-yl)-N-(1H-pyrazol-3-yl)imidazo[1,2-b]pyridazin-2-amine], the IC50 is reported as 0.83 µM.
For `Cc1nc(N)cc(-n2nc(C(=O)Nc3cccnc3)cc2Nc2ccn[nH]2)n1` [Cpd 11, 5-(1H-pyrazol-5-ylamino)-1-(6-amino-2-methylpyrimidin-4-yl)-N-(pyridin-3-yl)-1H-pyrazole-3-carboxamide], the IC50 was 0.66 µM.
With `Cc1nc(N)cc(-n2nc(C(=O)N3CCOCC3)cc2Nc2ccn[nH]2)n1` [Cpd 13, (5-(1H-pyrazol-5-ylamino)-1-(6-amino-2-methylpyrimidin-4-yl)-1H-pyrazol-3-yl)(morpholino)methanone] the IC50 was 1.12 µM.
In the case of `CNC(=O)c1cc(Nc2ccn[nH]2)n(-c2cc(N)nc(C)n2)n1` [Cpd 14, 5-(1H-pyrazol-5-ylamino)-1-(6-amino-2-methylpyrimidin-4-yl)-N-methyl-1H-pyrazole-3-carboxamide], the IC50 is reported as 2.35 µM.
Work on `CCOC(=O)c1cc(Nc2cc[nH]n2)n(-c2cc(N)nc(C)n2)n1` [Cpd 15, ethyl 5-(1H-pyrazol-3-ylamino)-1-(6-amino-2-methylpyrimidin-4-yl)-1H-pyrazole-3-carboxylate] yielded an IC50 of 0.34 µM.
In the case of `Cc1nc(N)cc(-n2nc(C(=O)NC3CC3)cc2Nc2cc[nH]n2)n1` [Cpd 16, 5-(1H-pyrazol-5-ylamino)-1-(6-amino-2-methylpyrimidin-4-yl)-N-cyclopropyl-1H-pyrazole-3-carboxamide], the IC50 is reported as 2.38 µM.
`Cc1cc(Nc2cc[nH]n2)n(-c2cc(N)nc(C)n2)n1` [Cpd 18, 6-(5-(1H-pyrazol-3-ylamino)-3-methyl-1H-pyrazol-1-yl)-2-methylpyrimidin-4-amine] was tested, and the IC50 was 3.23 µM.
Compound `COc1ccc(Nc2cc(C)nn2-c2cc(N)nc(C)n2)cn1` [Cpd 24, 6-(5-(6-methoxypyridin-3-ylamino)-3-methyl-1H-pyrazol-1-yl)-2-methylpyrimidin-4-amine] has an IC50 of 0.79 µM.
`Cc1nc(Nc2ccccc2F)cc(-c2c(Nc3cc[nH]n3)nc3cccnn23)n1` [Cpd 31, 3-(6-((2-fluorophenyl)amino)-2-methyl-4-pyrimidinyl)-N-1H-pyrazol-3-ylimidazo[1,2-b]pyridazin-2-amine] gave an IC50 of 2.76 µM.
Compound `COc1ccc(Nc2cc(-c3c(Nc4cc[nH]n4)nc4cccnn34)nc(C)n2)cc1` [Cpd 33] has an IC50 of 0.66 µM.
For `Cc1nc(Nc2cccnn2)cc(-c2c(Nc3ccn(C)n3)nc3cccnn23)n1` [Cpd 34, N-(1-methyl-1H-pyrazol-3-yl)-3-(2-methyl-6-(3-pyridazinylamino)-4-pyrimidinyl)imidazo[1,2-b]pyridazin-2-amine], the IC50 was 0.75 µM.
In the case of `Cc1nc(Nc2ccc(N3CCN(C)CC3)nn2)cc(-c2c(Nc3cc[nH]n3)nc3cccnn23)n1` [Cpd 35, 3-(2-methyl-6-((6-(4-methyl-1-piperazinyl)-3-pyridazinyl)amino)-4-pyrimidinyl)-N-1H-pyrazol-3-ylimidazo[1,2-b]pyridazin-2-amine], the IC50 is reported as 0.11 µM.
In the case of `CCNC(=O)Nc1ccc(Nc2nc3ccccn3c2-c2cc(N)nc(C)n2)cc1` [Cpd 40, 1-(4-((3-(6-amino-2-methyl-4-pyrimidinyl)imidazo[1,2-a]pyridin-2-yl)amino)phenyl)-3-ethylurea], the IC50 is reported as 0.45 µM.
Compound `Cc1nc(N)cc(-c2c(Nc3ccc4cc[nH]c4n3)nc3ccccn23)n1` [Cpd 41, 3-(6-amino-2-methyl-4-pyrimidinyl)-N-1H-pyrrolo[2,3-b]pyridin-6-ylimidazo[1,2-a]pyridin-2-amine] has an IC50 of 43.2 µM.
Work on `Cc1nc(Nc2ccc(N3CCOCC3)nn2)cc(-c2c(Nc3cc[nH]n3)nc3ccccn23)n1` [Cpd 49, 3-(2-methyl-6-((6-(4-morpholinyl)-3-pyridazinyl)amino)-4-pyrimidinyl)-N-1H-pyrazol-3-ylimidazo[1,2-a]pyridin-2-amine] yielded an IC50 of 0.13 µM.
In the case of `COCCOc1cnnc(Nc2cc(-c3c(Nc4ccc(NC(C)=O)cc4)nc4cccnn34)nc(C)n2)c1` [Cpd 53, N-(4-((3-(6-((5-(2-methoxyethoxy)-3-pyridazinyl)amino)-2-methyl-4-pyrimidinyl)imidazo[1,2-b]pyridazin-2-yl)amino)phenyl)acetamide], the IC50 is reported as 0.02 µM.
`Cc1nc(N)cc(-c2c(Nc3ccc(NC(=O)Nc4ccncc4)cc3)nc3ccccn23)n1` [Cpd 57, 1-(4-((3-(6-amino-2-methyl-4-pyrimidinyl)imidazo[1,2-a]pyridin-2-yl)amino)phenyl)-3-(4-pyridinyl)urea] gave an IC50 of 0.01 µM.
`Cc1nc(Nc2cc(OCC(F)(F)F)cnn2)cc(-c2c(Nc3cc[nH]n3)nc3cccnn23)n1` [Cpd 60, 3-(2-methyl-6-((5-(2,2,2-trifluoroethoxy)-3-pyridazinyl)amino)-4-pyrimidinyl)-N-1H-pyrazol-3-ylimidazo[1,2-b]pyridazin-2-amine] was tested, and the IC50 was 39.2 µM.
`CC(=O)Nc1cc(-c2c(Nc3ccn(C)n3)nc3c(F)cccn23)nc(C)n1` [Cpd 63, N-(6-(8-fluoro-2-((1-methyl-1H-pyrazol-3-yl)amino)imidazo[1,2-a]pyridin-3-yl)-2-methyl-4-pyrimidinyl)acetamide] was tested, and the IC50 was 2.04 µM.
`Cc1nc(N)cc(-c2c(Nc3ccn(C)n3)nc3ccc(-c4cccc(S(C)(=O)=O)c4)cn23)n1` [Cpd 65, 3-(6-amino-2-methyl-4-pyrimidinyl)-N-(1-methyl-1H-pyrazol-3-yl)-6-(3-(methylsulfonyl)phenyl)imidazo[1,2-a]pyridin-2-amine] showed an IC50 of 8.69 µM.
In the case of `CC(=O)n1ccc(Nc2nc3cccnn3c2-c2cc(N)nc(C)n2)n1` [Cpd 67, N-(1-acetyl-1H-pyrazol-3-yl)-3-(6-amino-2-methyl-4-pyrimidinyl)imidazo[1,2-b]pyridazin-2-amine], the IC50 is reported as 0.75 µM.
For `COCCOc1ccc2nc(Nc3cc[nH]n3)c(-c3cc(N)nc(C)n3)n2n1` [Cpd 69, 3-(6-amino-2-methyl-4-pyrimidinyl)-6-(2-methoxyethoxy)-N-1H-pyrazol-3-ylimidazo[1,2-b]pyridazin-2-amine], the IC50 was 0.09 µM.
For `CNc1cc(-c2c(Nc3cc[nH]n3)nc3ccc(N4CCOCC4)nn23)nc(C)n1` [Cpd 72, 3-(2-methyl-6-(methylamino)-4-pyrimidinyl)-6-(4-morpholinyl)-N-1H-pyrazol-3-ylimidazo[1,2-b]pyridazin-2-amine], the IC50 was 0.11 µM.
In the case of `Cc1nc(N)cc(-c2c(Nc3cc[nH]n3)nc3ccc(OCCN4CCCC4)nn23)n1` [Cpd 73], the IC50 is reported as 0.8 µM.
`Cc1nc(NC(=O)N(C)C)cc(-c2c(Nc3cc[nH]n3)nc3cccnn23)n1` [Cpd 75, 1,1-dimethyl-3-(2-methyl-6-(2-(1H-pyrazol-3-ylamino)imidazo[1,2-b]pyridazin-3-yl)-4-pyrimidinyl)urea] was tested, and the IC50 was 42.1 µM.
